Experimental data: patent publication US8969556B2, “Purine-based triazoles” (Case Western Reserve University, priority 2010, dated 2015)
Entries after “also recorded” stand apart in the source; their conditions may differ.

System: hippocampal slice cultures
Test: Aβ oligomer-induced neuronal cell death by PI staining (PI uptake) in hippocampal slice cultures
Details: compound 1 μM, 1 h pretreatment, then Aβ oligomers 5 μM, 48 h; mouse hippocampal slices
Procedure: In this Example, we used a convenient assay for neuronal cell death, which was induced by incubation with Aβ oligomers in hippocampal slice cultures. The binding of propidium iodide (PI) with DNA of dead cells gives characteristic fluorescence that could be followed by fluorescence microscopy. Since PI is impermeable to live cell membranes, the observed fluorescence is indicative of the extent of dead cell populations.
1.0 mg of Δβ1-42 peptide was dissolved in 120 μL of hexafluoroisopropanol for 60 min at room temperature, and placed back on ice for 5-10 min. Hexafluoroisopropanol was evaporated overnight in the hood at room temperature. The sample was dissolved by 100% DMSO by adding 20 μL of fresh anhydrous DMSO (Sigma Hybri-Max) to 0.45 mg of the peptide, and diluted to 5 mM peptide stock into medium. Diluted peptide was incubated at 4° C. for 24 h, and then centrifuged at 14,000 g for 10 min in the cold. Before treating slice culture with Δβ oligomers, the oligomers were incubated at room temperature for 20 h.
Hippocampal slice cultures were prepared from 7-10 day-old mouse pups. Slices were cut at 400 μm on a Mcllwain tissue chopper, transferred to Millicell (Millipore Corp., Bedford, Mass.) membrane inserts (0.4 μm), and placed in 6-well culture plated. The upper surfaces of the slices were exposed to a humidified 37° C. atmosphere containing 5% CO2. Slice culture media consisted of basal Eagles medium with Earle's balanced salt solution, 20% heat-inactivated horse serum, enriched with glucose to a concentration of 5.6 mM. The medium was changed every other day. Slices were examined periodically for viability, and any dark or abnormal slices were discarded.
The effects of Δβ oligomers were tested in the slices which had been maintained for 15-20 days in vitro. All reagents were added to serum free medium (no horse serum). Δβ oligomers were added to cultures in serum free medium. Vehicles were treated the same way except with no peptide.
To analyze the degree of hippocampal neuronal cell death, hippocampal slices were stained by adding PI into slice culture medium at a concentration of 5 μg/mL. At indicated times after Δβ oligomers treatment, the degree of hippocampal neuronal death was evaluated by microscopic observation of PI uptake as described previously. […] The intensity of the fluorescence was quantitatively analyzed using Scion Image. The images were expressed as an arbitrary unit of PI uptake.
Mouse hippocampal slice cultures were treated with Aβ oligomers in the presence of PI as the staining agent. The degree of hippocampal neuronal death was monitored by fluorescence microscopic observation of the PI uptake. The intensities of the fluorescence were conveniently analyzed using Scion images. The intensity of the PI fluorescence reflects the relative number of the dead cells, since PI cannot permeate the live cell membranes.

| Compound | neuroprotective effect against Aβ-induced neurotoxicity (neuronal cell survival, PI uptake) |
| --- | --- |
| Fc1c(F)c(F)c(Cn2cc(Cn3cnc4c(NCc5ccccc5)nc(Cl)nc43)nn2)c(F)c1F [Compound 9, 2-Chloro-6-benzylamino-9-[1-(pentafluorobenzyl)-1H-1,2,3-triazol-4-yl-methyl]purine] | virtually no neuroprotective effect |
| Clc1nc(NCc2ccccc2)c2ncn(Cc3cn(Cc4ccccc4)nn3)c2n1 [Compound 6, 2-Chloro-6-benzylamino-9-(1-benzyl-1H-1,2,3-triazol-4-yl-methyl)purine] | only marginal effects |
| Fc1cccc(F)c1Cn1cc(Cn2cnc3c(NCc4ccccc4)nc(Cl)nc32)nn1 [Compound 8, 2-Chloro-6-benzylamino-9-[1-(2,6-difluorobenzyl)-1H-1,2,3-triazol-4-yl-methyl]purine] | only marginal effects |
| CC[C@H](CO)Nc1nc(NCc2ccccc2)c2ncn(C(C)C)c2n1 [Roscovitine, reference compound] | neuronal cell survival rates comparable to those of the control experiments |
| CN1CC[C@H](c2c(O)cc(O)c3c(=O)cc(-c4ccccc4Cl)oc23)[C@H](O)C1 [Flavopiridol, reference compound] | neuronal cell survival rates comparable to those of the control experiments |
| Fc1ccccc1Cn1cc(Cn2cnc3c(NCc4ccccc4)nc(Cl)nc32)nn1 [Compound 7, 2-Chloro-6-benzylamino-9-[1-(2-fluorobenzyl)-1H-1,2,3-triazol-4-yl-methyl]purine] | neuronal cell survival rates comparable to those of the control experiments; also recorded: effectively suppressed Aβ-induced neurotoxicity |
